Experimental data as given in ChEMBL document CHEMBL1201862, “PubChem BioAssay data set” (2004).
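Growth conditions: 96-well plates. Treatment: test compound, 48 hours, 5 concentrations. Analysis: linear interpolation between bracketing concentrations; unreached endpoints set to highest concentration. GI50: concentration for 50% inhibition of growth.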 Calls of active or inactive are those of the source. Cut-off read from the data, not from the text of the source: active = GI50 up to about 1.1 µM and inactive = higher.

Tests used:
Test in all cases: NCI tumour cell line growth inhibition, 48 h
HOP-92 = system: HOP-92
T47D = system: T47D
HL-60 = system: HL-60
SR = system: SR
HCC 2998 = system: HCC 2998
MOLT-4 = system: MOLT-4
MDA-MB-231 = system: MDA-MB-231
SK-OV-3 = system: SK-OV-3
OVCAR-5 = system: OVCAR-5
SK-MEL-2 = system: SK-MEL-2
SF-268 = system: SF-268
SNB-19 = system: SNB-19
Hs-578T = system: Hs-578T
SK-MEL-28 = system: SK-MEL-28
IGROV-1 = system: IGROV-1
MCF7 = system: MCF7
NCI-H460 = system: NCI-H460
MDA-MB-435 = system: MDA-MB-435
CAKI-1 = system: CAKI-1
MDA-N = system: MDA-N

Row | Structure (SMILES) | GI50 (HOP-92) | GI50 (T47D) | GI50 (HL-60) | GI50 (SR) | GI50 (HCC 2998) | GI50 (MOLT-4) | GI50 (MDA-MB-231) | GI50 (SK-OV-3) | GI50 (OVCAR-5) | GI50 (SK-MEL-2) | GI50 (SF-268) | GI50 (SNB-19) | GI50 (Hs-578T) | GI50 (SK-MEL-28) | GI50 (IGROV-1) | GI50 (MCF7) | GI50 (NCI-H460) | GI50 (MDA-MB-435) | GI50 (CAKI-1) | GI50 (MDA-N)
1 | CCN(CCN(CC)C(=O)Nc1ccccc1)C(=O)Nc1ccccc1 | > 100 µM (inactive) | > 100 µM (inactive) | > 100 µM (inactive) | > 100 µM (inactive) | > 100 µM (inactive) | > 100 µM (inactive) | > 100 µM (inactive) | > 100 µM (inactive) | > 100 µM (inactive) | > 100 µM (inactive) | > 100 µM (inactive) | > 100 µM (inactive) | > 100 µM (inactive) | > 100 µM (inactive) | > 100 µM (inactive) | > 100 µM (inactive) | > 100 µM (inactive) |  |  | 
2 | CN(C)c1nc(NN)c2c(-c3ccccc3)c(-c3ccccc3)oc2n1 | > 100 µM (inactive) | > 100 µM (inactive) |  | 72.3 µM (inactive) | > 100 µM (inactive) | > 100 µM (inactive) | > 100 µM (inactive) | > 100 µM (inactive) | > 100 µM (inactive) |  | 89.1 µM (inactive) | > 100 µM (inactive) | 45.8 µM (inactive) | > 100 µM (inactive) | > 100 µM (inactive) | > 100 µM (inactive) |  | > 100 µM (inactive) | > 100 µM (inactive) | 
3 | c1ccc2cc3c(cc2c1)nc1ccccn13 | > 100 µM (inactive) | > 100 µM (inactive) | > 100 µM (inactive) | > 100 µM (inactive) | > 100 µM (inactive) | > 100 µM (inactive) |  | 77.3 µM (inactive) | > 100 µM (inactive) |  | > 100 µM (inactive) | > 100 µM (inactive) | 21 µM (inactive) | > 100 µM (inactive) | > 100 µM (inactive) | 28.2 µM (inactive) |  | > 100 µM (inactive) |  | > 100 µM (inactive)
4 | Cc1cc(SCC(=O)c2ccccc2)nc2ccccc12 | > 100 µM (inactive) | > 100 µM (inactive) | > 100 µM (inactive) | > 100 µM (inactive) |  | > 100 µM (inactive) | > 100 µM (inactive) |  | 72.9 µM (inactive) | > 100 µM (inactive) | 55.8 µM (inactive) | > 100 µM (inactive) | < 0.01 µM (active) | > 100 µM (inactive) | > 100 µM (inactive) | > 100 µM (inactive) | > 100 µM (inactive) | > 100 µM (inactive) | > 100 µM (inactive) | 
5 | COC1O[C@H]2[C@H]3[C@@H]1[C@@H](OS(=O)(=O)c1ccc(C)cc1)C(=O)N3C[C@H]2O (some centres undefined) |  | 64.4 µM (inactive) |  | > 100 µM (inactive) | > 100 µM (inactive) | 48.5 µM (inactive) | > 100 µM (inactive) | > 100 µM (inactive) | > 100 µM (inactive) | > 100 µM (inactive) | > 100 µM (inactive) | > 100 µM (inactive) |  | > 100 µM (inactive) |  | > 100 µM (inactive) | > 100 µM (inactive) | > 100 µM (inactive) | > 100 µM (inactive) | 
6 | CCc1nnc(CC)n1N1C(=O)CCC1=O | > 100 µM (inactive) |  |  | > 100 µM (inactive) | > 100 µM (inactive) | > 100 µM (inactive) | > 100 µM (inactive) | > 100 µM (inactive) | > 100 µM (inactive) | > 100 µM (inactive) | > 100 µM (inactive) | > 100 µM (inactive) |  | > 100 µM (inactive) | > 100 µM (inactive) | > 100 µM (inactive) |  | > 100 µM (inactive) |  | > 100 µM (inactive)
7 | CC1CCC2c3c([nH]c4ccccc34)C3C(=O)N(C4CCCCC4)C(=O)C3C2C1 (centres undefined) | 21 µM (inactive) |  | > 100 µM (inactive) | 29.2 µM (inactive) | > 100 µM (inactive) |  | 11.8 µM (inactive) | 18 µM (inactive) | 18.5 µM (inactive) | 17.4 µM (inactive) | 13.6 µM (inactive) | 16.4 µM (inactive) | 13 µM (inactive) | 15.1 µM (inactive) | 17.2 µM (inactive) | > 10 µM (inactive) | 26 µM (inactive) | 55.3 µM (inactive) | 14 µM (inactive) | 33.3 µM (inactive)
8 | CCOC(=O)C1CCCc2sc(N)c(C#N)c21 (centres undefined) | 70.6 µM (inactive) | > 100 µM (inactive) | > 100 µM (inactive) | > 100 µM (inactive) | > 100 µM (inactive) | > 100 µM (inactive) | > 100 µM (inactive) |  | > 100 µM (inactive) | > 100 µM (inactive) |  | > 100 µM (inactive) | > 100 µM (inactive) | > 100 µM (inactive) | > 100 µM (inactive) | > 100 µM (inactive) | > 100 µM (inactive) |  |  | > 100 µM (inactive)
9 | [N-]=[N+]=Nc1ccc2c(c1)Sc1ccccc1N2CCCCN1CCN(Cc2ccc(C(=O)c3ccc(CSCC(N)C(=O)O)cc3)cc2)CC1 (centres undefined) | 9.84 µM (inactive) |  | 6.55 µM (inactive) |  | 24.9 µM (inactive) | 15.3 µM (inactive) | 13.6 µM (inactive) | > 100 µM (inactive) | 52.4 µM (inactive) | 19.3 µM (inactive) | 27.5 µM (inactive) |  |  | 2.01 µM (inactive) | 13.5 µM (inactive) | 16.4 µM (inactive) | 34.8 µM (inactive) | 1.59 µM (inactive) | 20.7 µM (inactive) | 12.8 µM (inactive)
10 | C/C(=C\c1ccccn1)c1ccccn1 | > 100 µM (inactive) |  |  |  | > 100 µM (inactive) | > 100 µM (inactive) | > 100 µM (inactive) | > 100 µM (inactive) | > 100 µM (inactive) | > 100 µM (inactive) | > 100 µM (inactive) | > 100 µM (inactive) | > 100 µM (inactive) | > 100 µM (inactive) | > 100 µM (inactive) | > 100 µM (inactive) | > 100 µM (inactive) | > 100 µM (inactive) | > 100 µM (inactive) | > 100 µM (inactive)
11 | CC(=O)Oc1cc2c[n+](C)c3c4cc(OC(C)=O)c(OC(C)=O)cc4ccc3c2cc1OC(C)=O | 4.32 µM (inactive) | 1.87 µM (inactive) |  | 2.22 µM (inactive) | 9.23 µM (inactive) |  |  | 4.32 µM (inactive) | 17.3 µM (inactive) |  | 0.407 µM (active) | 2.3 µM (inactive) | > 100 µM (inactive) | > 100 µM (inactive) | 2.49 µM (inactive) | 3.17 µM (inactive) | 4.93 µM (inactive) |  | 4.48 µM (inactive) | 5.51 µM (inactive)
12 | O=C(O)c1cc2ccccc2c(/N=N/c2ccc(S(=O)(=O)Nc3ncccn3)cc2)c1O | > 100 µM (inactive) |  | > 100 µM (inactive) | > 100 µM (inactive) | > 100 µM (inactive) | > 100 µM (inactive) | > 100 µM (inactive) | > 100 µM (inactive) | > 100 µM (inactive) | > 100 µM (inactive) | > 100 µM (inactive) | > 100 µM (inactive) | > 100 µM (inactive) | > 100 µM (inactive) | > 100 µM (inactive) | > 100 µM (inactive) | > 100 µM (inactive) | > 100 µM (inactive) | > 100 µM (inactive) | 
13 | COc1ccc(N2C(=O)CC(=O)N(C(=O)COc3ccc(OCC(=O)N4C(=O)CC(=O)N(c5ccc(OC)cc5)C4=S)cc3)C2=S)cc1 | 40.9 µM (inactive) |  |  |  | 32.3 µM (inactive) | 32 µM (inactive) | 30.3 µM (inactive) | 29.2 µM (inactive) | > 100 µM (inactive) | 23.9 µM (inactive) | 35.4 µM (inactive) | 40.3 µM (inactive) |  | 48.1 µM (inactive) | 47.9 µM (inactive) | 31.1 µM (inactive) | 25.7 µM (inactive) | 36.9 µM (inactive) | 0.718 µM (active) | 37.8 µM (inactive)
14 | COc1cccc(NC(=O)C(C)(C)C)c1C=O | 54 µM (inactive) |  | 26.7 µM (inactive) | 26.5 µM (inactive) | 92 µM (inactive) | 31 µM (inactive) |  | 82.8 µM (inactive) | 62.5 µM (inactive) | 73.6 µM (inactive) | 47.5 µM (inactive) | 51.2 µM (inactive) |  | > 100 µM (inactive) | 56.1 µM (inactive) |  | > 100 µM (inactive) |  | 56.6 µM (inactive) | 
15 | Cc1cc(Br)cc(C)c1NC(=O)C(=O)C1C(=O)C(CC2C(=O)c3ccccc3C2=O)C(=O)CC1(C)C (centres undefined) | 55.3 µM (inactive) |  | 28.5 µM (inactive) |  | > 100 µM (inactive) | 18.1 µM (inactive) | 55 µM (inactive) | > 100 µM (inactive) | > 100 µM (inactive) | > 100 µM (inactive) | > 100 µM (inactive) | > 100 µM (inactive) | > 100 µM (inactive) | > 100 µM (inactive) | 29.9 µM (inactive) | 18.6 µM (inactive) | > 100 µM (inactive) | > 100 µM (inactive) | > 100 µM (inactive) | > 100 µM (inactive)
16 | CC(C)=C/C=C1/CS(=O)(=O)C=C1C |  | > 100 µM (inactive) | > 100 µM (inactive) |  | > 100 µM (inactive) | > 100 µM (inactive) | > 100 µM (inactive) | > 100 µM (inactive) | > 100 µM (inactive) | > 100 µM (inactive) |  | > 100 µM (inactive) |  | > 100 µM (inactive) | > 100 µM (inactive) | > 100 µM (inactive) |  | > 100 µM (inactive) | > 100 µM (inactive) | > 100 µM (inactive)
